{
  "source": "patent US5492890A",
  "about": "“Polypeptides for promoting cell attachment” (The Scripps Research Institute, priority 1991, dated 1996)",
  "key": {"[1]": {"target": "T1, GPIIb-IIIa (Homo sapiens, UniProt P05106+P08514)", "T1 construct": "platelet membrane GPIIb-IIIa protein from lysed platelets; from tissue", "experiment": "Competition assay: synthetic polypeptide inhibition of biotinylated Fn binding to purified GPIIb-IIIa", "details": "for inhibition of Fn binding to GPIIb-IIIa: tested at 200 μM polypeptide", "experimental": "The competition assays are performed as described by Charo et al., J. Biol. Chem., 266:1415-1421 (1991). The competition assay is performed by first admixing into individual wells of a 96 well microtiter plate (Immunlon, Dynatech) 10 μg/ml of purified GPIIb-IIIa, prepared in Example 1, diluted in HEPES-saline buffer, pH 7.4, consisting of 10 mM HEPES, 150 mM NaCl 1 mM CaCl2 and 1 mMMgCl2. The plates are maintained for 16 hours at 4° C. to allow the purified receptor to adsorb onto the walls of the wells. The receptor-coated wells are then washed two times with Modified Tyrode's buffer, prepared as described in Example 1, to remove any non-bound receptor from the receptor-coated wells. Non-receptor-occupied sites on the microtiter wells are blocked by admixing 5% BSA dissolved in Modified Tyrode's buffer into each well and maintaining the plate for 2 hours at room temperature.\nAfter removing the blocking solution and washing the blocked wells as described above, 50 μl of a 10 nM solution of biotinylated Fn in Modified Tyrode's buffer is admixed into each well in the presence of polypeptides prepared in Example 9a ranging in concentration from 0.1 μM to 200 μM polypeptide to form a solid-liquid phase receptor-protein admixture. Fn admixed in the absence of polypeptides served as a positive control for the competition assay. Purified Fn is prepared as described in Example 2.\nThe resultant purified Fn is then biotinylated as described by Dale et al., Blood, 77:1096-1099 (1991). Briefly, for biotinylation, Fn is first dialyzed into 0.1M NaHCO3 containing 0.1M NaCl at pH 8.0 and centrifuged at 100,000× g for 30 minutes at 4° C. to remove any particulate matter. The protein concentration is adjusted to 0.5 mg/ml in 50 mM sodium borate at pH 8.5. […]\nThe Fn-peptide admixtures are maintained in GPIIb-IIIa-coated wells for 2 hours at room temperature to allow the biotinylated Fn to bind to the receptor. Following this maintenance period, the reacted wells are washed as described above and the amount of biotinylated Fn bound to GPIIb-IIIa is determined by admixing 0.1 ml avidin bound to biotinylated horseradish peroxidase H (Hrp) (Sigma, St. Louis, Mo.) at a 1:2000 dilution to form an avidin-biotinylated Fn admixture. […] Excess avidin Hrp is removed by washing as described and the presence of biotinylated Fn bound to purified GPIIb-IIIa is detected by admixture of 50 μl of freshly prepared chromogenic substrate solution containing 4.0 mg/ml 0-phenylenediamine and 0.012% (v/v) hydrogen peroxide in CP buffer as described in Example 3a. After maintaining the color developing-reaction admixture for 10 minutes at 20° C., the reaction is stopped with the admixture of 2N H2 SO4 and the stopped reactions are measured for absorbance as described in Example 3a."}, "[2]": {"target": "T1, GPIIb-IIIa", "experiment": "Inhibition of 125I-Fn binding to immobilized GPIIb-IIIa by fusion proteins (competition binding)", "details": "varying concentrations, FIG. 3", "experimental": "The ability of a fusion protein or polypeptide of the present invention to inhibit the binding interaction between GPIIb-IIIa and either fibronectin or fibrinogen was measured by competition binding to immobilized GPIIb-IIIa.\nIncubate the GPIIb-IIIa in the plate for 16 hours at 4° C., then the unbound material is removed from the wells which are then blocked with 150 μl of 5% BSA in the same buffer for 1 hour at room temperature. Wash the wells three times with 150 μl of Tyrode's buffer with 5 mM HEPES, 1 mM MgCl2, 1 mg/ml dextrose, 1 mg/ml BSA. […] Incubate 4 hours to overnight at room temperature (with lead shield).\nCarefully remove radioactive samples and wash 3 times with 150 μl Tyrodes with 5 mM HEPES, 1 mMMgCl2, 1 mg/ml dextrose, 1 mg/ml BSA. Count with a Gamma Counter and elute by boiling in SDS-PAGE loading Buffer.\nIn an alternative embodiment, non-radioactive Fn may be used instead of radioactive, and detected by reacting with an appropriate anti-Fn antibody and HRP-conjugated secondary antibody. Using this variation, each antibody is incubated with the washed plate for 1 hr. The anti-Fn antibody is titrated, but a 1:1000 dilution of HRP-conjugated antibody from most manufacturers works fine."}, "[3]": {"target": "T1, GPIIb-IIIa", "experiment": "Direct binding of 125I-labelled ligands to microtiter wells coated with purified GPIIb-IIIa", "excerpt": "To determine if the insert coded polypeptide containing fibronectin residues 1235-1436 bound GPIIb-IIIa, the capacity of microtiter wells coated with purified GPIIb-IIIa to bind the radiolabelled fusion-protein preparation was ascertained (Table 3). In addition, the radiolabelled material bound to the insolubilized GPIIb-IIIa was recovered and analyzed by SDS-PAGE followed by radioautography. […] The isolated protein products were a mixture of insert coded polypeptides containing fusion protein and maltose binding protein breakdown products. Only those bands containing the insert-coded polypeptide bound to the insolubilized GPIIb-IIIa and that binding was inhibitable by either EDTA or the monoclonal antibody FnI-16."}},
  "data": [
    {"substance": "(2:73-274): polypeptide of SEQ ID NO 2 residues 73-274, Fn residues 1235-1436", "values": [
      {"measurement": "inhibition of Fn binding to GPIIb-IIIa", "setting": "[1]", "value": "inhibit Fn binding to GPIIb-IIIa"}
    ]},
    {"substance": "(2:197-274): polypeptide of SEQ ID NO 2 residues 197-274, Fn residues 1359-1436", "values": [
      {"measurement": "inhibition of Fn binding to GPIIb-IIIa", "setting": "[1]", "value": "inhibit Fn binding to GPIIb-IIIa"}
    ]},
    {"substance": "(2:248-274): synthetic polypeptide of SEQ ID NO 2 residues 248-274, Fn residues 1410-1436 (IGQQSTVSDVPRDLEVVAATPTSLLIS)", "values": [
      {"measurement": "polypeptide concentration for maximal inhibition of Fn binding to GPIIb-IIIa", "setting": "[1]; 10 nM biotinylated Fn", "value": "approximately 200 μM"},
      {"measurement": "competitive inhibition of Fn binding to purified GPIIb-IIIa", "setting": "[1]; 10 nM biotinylated Fn, 0.1 to 200 μM polypeptide", "value": "competitively inhibits"}
    ]},
    {"substance": "Fibronectin", "values": [
      {"measurement": "inhibition of fibronectin binding to purified GPIIb-IIIa", "setting": "[2]", "value": "inhibited fibronectin binding"},
      {"measurement": "binding of radiolabelled ligand to insolubilized GPIIb-IIIa", "setting": "[3]; GPIIb-IIIa coated wells", "value": "Specific binding"},
      {"measurement": "125I-labelled ligand bound to GPIIb-IIIa", "setting": "[3]; inhibitor 2 mM EDTA", "value": 8, "unit": "Counts × 10^-3"},
      {"measurement": "125I-labelled ligand bound to GPIIb-IIIa", "setting": "[3]; inhibitor Mab 16.12", "value": 12, "unit": "Counts × 10^-3"},
      {"measurement": "125I-labelled ligand bound to GPIIb-IIIa", "setting": "[3]; no inhibitor", "value": 42, "unit": "Counts × 10^-3"}
    ]}
  ]
}
